Consider four compounds from ChEMBL document CHEMBL5143724, “Small Molecules Promote Selective Denaturation and Degradation of Tubulin Heterodimers through a Low-Barrier Hydrogen Bond” (J Med Chem, 2022).

Calls of active or inactive are those of the source. The rule behind the calls is not given here.

In one experiment the test system is HeLa. Put plainly: Antiproliferative activity against human HeLa cells assessed as cell viability at 0.001 to 100 uM incubated for 48 hrs by MTT assay. The class given is functional, cell-based. The settings on record: dose 0.001-100 µM.
Experiment [1] has as its target Tubulin beta (Homo sapiens) (UniProt P68371+Q9H4B7+Q13509+P04350+Q3ZCM7+P07437+Q13885+Q9BVA1+Q9BUF5+A6NNZ2). Put plainly: Induction of Beta tubulin degradation in human HeLa cells at 0.001 to 100 uM incubated for 16 hrs by immunoblotting analysis. The class given is cell-based. The settings on record: dose 0.001-100 µM.

`c1ccc(CNc2cc3c(cn2)[nH]c2ccccc23)cc1`: the result (with HeLa; in experiment [1]) was Active.
For the compound `c1ccc2c(c1)[nH]c1cnc(NCC3CCCCC3)cc12`, the result (in the experiment with HeLa; in experiment [1]) was Active.
Regarding `c1ccc(Oc2cccc(CNc3cc4ccccc4cn3)c2)cc1`, the result (in the experiment with HeLa; in experiment [1]) was Active.
In the case of `c1ccc(Oc2cccc(CNc3ccccn3)c2)cc1`, the result (with HeLa; in experiment [1]) was Active.
